The supplement of paper PMC10307832

Experiments:
Test in all cases: relative viability (nuclei count vs DMSO), 5 days (fraction); higher = more cells survive
[1] = system: NCI-H1623
Method in brief: (§1)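 Values are medians from duplicate plates. Each reflects relative viability, defined as the nuclei count of treated wells over that of vehicle wells. Lung cancer cell lines in 1536-well plates were pin-tool dosed one day after seeding with one drug alone or with a fixed anchor-drug dose plus five library-drug doses (not always all listed) in √10 steps, then fixed, stained and imaged at 4× after 5 days.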

[2] = system: NCI-H2009
Method in brief: as §1

[3] = system: A-427
Method in brief: as §1

[4] = system: NCI-H1734
Method in brief: as §1

[5] = system: A549
Method in brief: as §1

[6] = system: UMC-11
Method in brief: as §1

[7] = system: NCI-H1650
Method in brief: as §1

[8] = system: CAL-12T
Method in brief: as §1

[9] = system: LK-2
Method in brief: as §1

[10] = system: EBC-1
Method in brief: as §1

[11] = system: NCI-H1703
Method in brief: as §1

[12] = system: IA-LM
Method in brief: as §1

[13] = system: NCI-H1299
Method in brief: as §1

[14] = system: Calu-6
Method in brief: as §1

CCN(CC)CCCCNc1ncc2cc(-c3cc(OC)cc(OC)c3)c(NC(=O)NC(C)(C)C)nc2n1 + N=C(N)NC(=N)NCCc1ccccc1 [Phenformin] (partner 250 µM)
relative viability ([1]; first compound 0.01 µM): 0.602 | relative viability ([1]; first compound 0.03162 µM): 0.49 | relative viability ([1]; first compound 0.1 µM): 0.626 | relative viability ([1]; first compound 0.3162 µM): 0.608 | relative viability ([1]; first compound 1 µM): 0.577 | relative viability ([2]; first compound 0.01 µM): 0.471 | relative viability ([2]; first compound 0.03162 µM): 0.462 | relative viability ([2]; first compound 0.1 µM): 0.451 | relative viability ([2]; first compound 0.3162 µM): 0.456 | relative viability ([2]; first compound 1 µM): 0.357 | relative viability ([3]; first compound 0.01 µM): 0.294 | relative viability ([3]; first compound 0.03162 µM): 0.273 | relative viability ([3]; first compound 0.1 µM): 0.289 | relative viability ([3]; first compound 0.3162 µM): 0.204 | relative viability ([3]; first compound 1 µM): 0.173 | relative viability ([4]; first compound 0.01 µM): 0.356 | relative viability ([4]; first compound 0.03162 µM): 0.363 | relative viability ([4]; first compound 0.1 µM): 0.384 | relative viability ([4]; first compound 0.3162 µM): 0.364 | relative viability ([4]; first compound 1 µM): 0.354 | relative viability ([5]; first compound 0.01 µM): 0.198 | relative viability ([5]; first compound 0.03162 µM): 0.19 | relative viability ([5]; first compound 0.1 µM): 1.04 | relative viability ([5]; first compound 0.3162 µM): 0.247 | relative viability ([5]; first compound 1 µM): 0.12 | relative viability ([6]; first compound 0.01 µM): 0.346 | relative viability ([6]; first compound 0.03162 µM): 0.353 | relative viability ([6]; first compound 0.1 µM): 0.371 | relative viability ([6]; first compound 0.3162 µM): 0.343 | relative viability ([6]; first compound 1 µM): 0.362 | relative viability ([7]; first compound 0.01 µM): 0.456 | relative viability ([7]; first compound 0.03162 µM): 0.416 | relative viability ([7]; first compound 0.1 µM): 0.503 | relative viability ([7]; first compound 0.3162 µM): 0.319 | relative viability ([7]; first compound 1 µM): 0.232 | relative viability ([8]; first compound 0.01 µM): 0.595 | relative viability ([8]; first compound 0.03162 µM): 0.582 | relative viability ([8]; first compound 0.1 µM): 0.673 | relative viability ([8]; first compound 0.3162 µM): 0.726 | relative viability ([8]; first compound 1 µM): 0.573 | relative viability ([9]; first compound 0.01 µM): 0.638 | relative viability ([9]; first compound 0.03162 µM): 0.289 | relative viability ([9]; first compound 0.1 µM): 0.239 | relative viability ([9]; first compound 0.3162 µM): 0.304 | relative viability ([9]; first compound 1 µM): 0.223

O=c1cc(N2CCOCC2)oc2c(-c3cccc4c3sc3ccccc34)cccc12 + COc1cc2c(Oc3ccc(NC(=O)C4(C(=O)Nc5ccc(F)cc5)CC4)cc3F)ccnc2cc1OCCCN1CCOCC1 [Foretinib] (partner 0.25 µM)
relative viability ([10]; first compound 0.01 µM): 0.0963 | relative viability ([10]; first compound 0.03162 µM): 0.0939 | relative viability ([10]; first compound 0.1 µM): 0.0965 | relative viability ([10]; first compound 0.3162 µM): 0.128 | relative viability ([10]; first compound 1 µM): 0.102 | relative viability ([11]; first compound 0.01 µM): 0.333 | relative viability ([11]; first compound 0.03162 µM): 0.314 | relative viability ([11]; first compound 0.1 µM): 0.352 | relative viability ([11]; first compound 0.3162 µM): 0.371 | relative viability ([11]; first compound 1 µM): 0.296 | relative viability ([12]; first compound 0.01 µM): 1.1 | relative viability ([12]; first compound 0.03162 µM): 1.11 | relative viability ([12]; first compound 0.1 µM): 1.23 | relative viability ([12]; first compound 0.3162 µM): 1.06 | relative viability ([12]; first compound 1 µM): 1.25 | relative viability ([1]; first compound 0.01 µM): 0.84 | relative viability ([1]; first compound 0.03162 µM): 0.9 | relative viability ([1]; first compound 0.1 µM): 0.559 | relative viability ([1]; first compound 0.3162 µM): 0.849 | relative viability ([1]; first compound 1 µM): 0.862 | relative viability ([2]; first compound 0.01 µM): 1.19 | relative viability ([2]; first compound 0.03162 µM): 1.21 | relative viability ([2]; first compound 0.1 µM): 1.23 | relative viability ([2]; first compound 0.3162 µM): 1.22 | relative viability ([2]; first compound 1 µM): 1.11 | relative viability ([3]; first compound 0.01 µM): 1.04 | relative viability ([3]; first compound 0.03162 µM): 1.2 | relative viability ([3]; first compound 0.1 µM): 0.972 | relative viability ([3]; first compound 0.3162 µM): 1.01 | relative viability ([3]; first compound 1 µM): 1 | relative viability ([4]; first compound 0.01 µM): 0.851 | relative viability ([4]; first compound 0.03162 µM): 1.03 | relative viability ([4]; first compound 0.1 µM): 0.894 | relative viability ([4]; first compound 0.3162 µM): 0.837 | relative viability ([4]; first compound 1 µM): 0.78 | relative viability ([13]; first compound 0.01 µM): 1.04 | relative viability ([13]; first compound 0.03162 µM): 1.11 | relative viability ([13]; first compound 0.1 µM): 1.08 | relative viability ([13]; first compound 0.3162 µM): 1.13 | relative viability ([13]; first compound 1 µM): 1.04 | relative viability ([14]; first compound 0.01 µM): 0.932 | relative viability ([14]; first compound 0.03162 µM): 0.895 | relative viability ([14]; first compound 0.1 µM): 0.891 | relative viability ([14]; first compound 0.3162 µM): 0.888 | relative viability ([14]; first compound 1 µM): 0.839 | relative viability ([5]; first compound 0.01 µM): 0.936 | relative viability ([5]; first compound 0.03162 µM): 1 | relative viability ([5]; first compound 0.1 µM): 0.99 | relative viability ([5]; first compound 0.3162 µM): 0.912 | relative viability ([5]; first compound 1 µM): 0.994 | relative viability ([6]; first compound 0.01 µM): 1 | relative viability ([6]; first compound 0.03162 µM): 1.08 | relative viability ([6]; first compound 0.1 µM): 1.03 | relative viability ([6]; first compound 0.3162 µM): 1.01 | relative viability ([6]; first compound 1 µM): 0.91 | relative viability ([7]; first compound 0.01 µM): 1.09 | relative viability ([7]; first compound 0.03162 µM): 1.09 | relative viability ([7]; first compound 0.1 µM): 1.04 | relative viability ([7]; first compound 0.3162 µM): 1.21 | relative viability ([7]; first compound 1 µM): 1.19 | relative viability ([8]; first compound 0.01 µM): 1.12 | relative viability ([8]; first compound 0.03162 µM): 0.973 | relative viability ([8]; first compound 0.1 µM): 1.14 | relative viability ([8]; first compound 0.3162 µM): 1.03 | relative viability ([8]; first compound 1 µM): 1.11 | relative viability ([9]; first compound 0.01 µM): 1.17 | relative viability ([9]; first compound 0.03162 µM): 1.16 | relative viability ([9]; first compound 0.1 µM): 1.53 | relative viability ([9]; first compound 0.3162 µM): 0.958 | relative viability ([9]; first compound 1 µM): 0.951
